Test results taken from PubChem BioAssay (NCI).
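Here, GI50 denotes the concentration required for 50% inhibition of growth. TGI: concentration producing complete growth inhibition.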

What was measured:
Assay in all cases: growth of human tumour cells (NCI), 384-well format
[1] = system: OVCAR-5 ovarian
[2] = system: SW-620 colon
[3] = system: HS 578T breast
[4] = system: ACHN renal
[5] = system: SN12C renal
[6] = system: T-47D breast
[7] = system: OVCAR-4 ovarian
[8] = system: 786-0 renal
[9] = system: SK-OV-3 ovarian
[10] = system: BT-549 breast
[11] = system: MDA-MB-231 breast
[12] = system: SNB-19 CNS
[13] = system: A549 NSCLC
[14] = system: HOP-62 NSCLC
[15] = system: SF-539 CNS
[16] = system: TK-10 renal
[17] = system: SK-MEL-5 melanoma
[18] = system: KM12 colon
[19] = system: M14 melanoma
[20] = system: MALME-3M melanoma
[21] = system: NCI-H23 lung
[22] = system: DU-145 prostate
[23] = system: RXF 393 renal
[24] = system: LOX IMVI melanoma
[25] = system: HCT-15 colon
[26] = system: NCI-H522 lung
[27] = system: MCF7 breast
[28] = system: PC-3 prostate
[29] = system: RPMI-8226 leukemia

In the case of `Cc1nc(-c2cnc(NC(C)C)n(C)c2=O)ccc1Oc1ccnc(-c2cnn(C)c2)c1`, the TGI [1] is reported as 34.9 µM, the GI50 [2] is reported as 5.53 µM and the TGI [2] is reported as 17.9 µM. For the same molecule, the GI50 [3] was 13.6 µM, the TGI [3] was 29.2 µM and the GI50 [4] was 27.2 µM. The TGI [4] was over 100 µM, the GI50 [5] was 14.5 µM and the TGI [5] was 28.3 µM. For the same molecule, the GI50 [6] was 5.73 µM, the TGI [6] was 28.7 µM and the GI50 [7] was 13.6 µM. For the same molecule, the TGI [7] was 50.8 µM, the GI50 [8] was 18.3 µM and the TGI [8] was 61.4 µM. It also gave a GI50 [9] of 11.5 µM, a TGI [9] of 25.5 µM and a GI50 [10] of 14 µM. The TGI [10] was 81.1 µM, the GI50 [11] was 16.4 µM and the TGI [11] was over 100 µM. For the same molecule, the GI50 [12] was 21.3 µM, the TGI [12] was 68.6 µM and the GI50 [13] was 23.3 µM. It also gave a TGI [13] of over 100 µM, a GI50 [14] of 14.4 µM and a TGI [14] of 39.6 µM. For the same molecule, the GI50 [15] was 12.4 µM, the TGI [15] was 25.2 µM and the GI50 [16] was 27.1 µM. The TGI [16] was over 100 µM, the GI50 [17] was 4.46 µM and the TGI [17] was 16.2 µM. For the same molecule, the GI50 [18] was 4.67 µM, the TGI [18] was 33.9 µM and the GI50 [19] was 7.99 µM. The TGI [19] was 27.3 µM, the GI50 [20] was 7.48 µM and the TGI [20] was 36.5 µM. For the same molecule, the GI50 [21] was 12.4 µM, the TGI [21] was 36 µM and the GI50 [22] was 30.1 µM. It also gave a TGI [22] of over 100 µM, a GI50 [23] of 12.4 µM and a TGI [23] of 34.2 µM. It also gave a GI50 [24] of 17.9 µM, a TGI [24] of 71.6 µM and a GI50 [25] of 4.68 µM. It also gave a TGI [25] of 19.4 µM, a GI50 [26] of 4.45 µM and a TGI [26] of 15.5 µM. For the same molecule, the GI50 [27] was 9.45 µM, the TGI [27] was over 100 µM and the GI50 [28] was 21 µM. For the same molecule, the TGI [28] was 60.3 µM, the GI50 [29] was 4.9 µM and the TGI [29] was 21.7 µM.
